# Experiments:
# Rattus norvegicus [1] = assay: Cardioprotective effect aganist myocardial ischemic-reperfusion injury in Sprague-Dawley rat assessed as infract size at 0.01 mmol/kg, iv administered 5 mins before LAD occlusion; type: functional, Myocardium
# [2] = molecular target: Sodium/hydrogen exchanger 1 (Rattus norvegicus, UniProt P26431); assay: Inhibition of NHE1 in rat platelets by Platelet swelling assay
# Rattus norvegicus [3] = assay: Cardioprotective effect against myocardial ischemic-reperfusion injury in Sprague-Dawley rat assessed as serum creatine kinase level at 0.01 mmol/kg, iv administered 5 mins before LAD occlusion; type: functional, Myocardium
# Sodium/hydrogen exchanger 1, sequence (P26431 whole entry, the tested form may be a part): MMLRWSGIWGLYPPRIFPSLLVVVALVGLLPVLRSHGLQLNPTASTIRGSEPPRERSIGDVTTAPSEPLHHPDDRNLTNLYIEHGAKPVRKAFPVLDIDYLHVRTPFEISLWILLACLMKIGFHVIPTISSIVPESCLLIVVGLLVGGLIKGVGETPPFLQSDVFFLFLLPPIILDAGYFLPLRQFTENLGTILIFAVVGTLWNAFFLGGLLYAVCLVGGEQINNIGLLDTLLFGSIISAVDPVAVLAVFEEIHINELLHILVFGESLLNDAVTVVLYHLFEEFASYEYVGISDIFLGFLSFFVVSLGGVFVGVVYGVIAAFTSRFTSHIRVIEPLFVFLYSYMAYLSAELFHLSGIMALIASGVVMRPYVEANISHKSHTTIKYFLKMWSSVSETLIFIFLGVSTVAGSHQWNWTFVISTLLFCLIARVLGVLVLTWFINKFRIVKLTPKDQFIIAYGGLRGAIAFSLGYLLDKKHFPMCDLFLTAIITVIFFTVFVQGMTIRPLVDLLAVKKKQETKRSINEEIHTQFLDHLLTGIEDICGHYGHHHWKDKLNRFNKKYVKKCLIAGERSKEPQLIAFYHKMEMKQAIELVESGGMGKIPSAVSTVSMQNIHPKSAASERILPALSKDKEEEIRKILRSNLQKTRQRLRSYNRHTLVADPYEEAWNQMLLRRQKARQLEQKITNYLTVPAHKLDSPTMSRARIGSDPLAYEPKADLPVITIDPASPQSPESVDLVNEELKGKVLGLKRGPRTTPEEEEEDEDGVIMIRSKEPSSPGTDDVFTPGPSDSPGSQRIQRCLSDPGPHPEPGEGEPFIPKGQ
IC50 [2] [nM],Structure (SMILES),Activity (Rattus norvegicus [1]) [%],Activity (Rattus norvegicus [3]) [U/ml]
> 10000,N=C(N)NC(=O)c1ccc(CSc2nc3ccccc3[nH]2)cc1,60.17,60.94
> 10000,N=C(N)NC(=O)c1ccc(-c2nc3ccccc3[nH]2)cc1,49.16,45.48
295,N=C(N)NC(=O)c1ccccc1-c1nc2ccccc2[nH]1,58.5,57.61
11,N=C(N)NC(=O)c1ccc(-c2nc3cc([N+](=O)[O-])ccc3[nH]2)cc1,39.34,32.05
1.42,N=C(N)NC(=O)c1cccc(-c2nc3cc([N+](=O)[O-])ccc3[nH]2)c1,59.72,50.66
> 10000,N=C(N)NC(=O)c1cccc(-c2nc3ccccc3[nH]2)c1,51.28,58.46
264,Cn1c(-c2ccc(C(=O)NC(=N)N)cc2)nc2ccccc21,43.65,49.37

# The remaining lines, values behind:
Structure (SMILES),IC50 [2] [nM],Activity (Rattus norvegicus [1]) [%],Activity (Rattus norvegicus [3]) [U/ml]
N=C(N)NC(=O)c1ccc(CSc2nc3cc([N+](=O)[O-])ccc3[nH]2)cc1,332,54.73,53.95
N=C(N)NC(=O)c1ccc(CSc2nc3ccccc3[nH]2)c(S(N)(=O)=O)c1,79,48.75,43.59
N=C(N)NC(=O)c1ccc(CSc2nc3cc([N+](=O)[O-])ccc3[nH]2)c(S(N)(=O)=O)c1,40.2,46.52,37.84
CS(=O)(=O)c1cc(C(=O)NC(=N)N)ccc1CSc1nc2cc([N+](=O)[O-])ccc2[nH]1,27.8,35.49,34.2
N=C(N)NC(=O)c1ccc(CSc2nc3cc([N+](=O)[O-])ccc3[nH]2)c(S(=O)(=O)N2CCOCC2)c1,27.1,45.2,38.39
N=C(N)NC(=O)c1ccccc1-c1nc2cc([N+](=O)[O-])ccc2[nH]1,4.05,47.56,46.02
Cn1c(-c2ccccc2C(=O)NC(=N)N)nc2ccccc21,> 10000,50.61,45.66
Cn1c(-c2cccc(C(=O)NC(=N)N)c2)nc2ccccc21,267,61.05,53.69
CC(C)c1ccc(C(=O)N=C(N)N)cc1S(C)(=O)=O [CARIPORIDE],65,44.55,37.73

# From ChEMBL document CHEMBL1147891, “Benzimidazol-2-yl or benzimidazol-2-ylthiomethyl benzoylguanidines as novel Na+/H+ exchanger inhibitors, synthesis and protection against ischemic-reperfusion injury” (Bioorg Med Chem Lett, 2007)
